According to PubChem BioAssay AID328 (DTP/NCI, 2004):
Inconclusive results and toxic doses are left out.

Tested on: BDF1 mice, P388 leukemia ip, median survival T/C
Assay: NCI In Vivo Anticancer Drug Screen. Data for tumor model P388 Leukemia (intraperitoneal) in B6D2F1 (BDF1) mice
Settings: endpoint: median survival time, higher = longer survival
In short: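 Antitumour effect was judged in vivo: survival in drug-treated mice, normalised to that of vehicle-dosed controls, gives the reported T/C.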

[1] = dose: 25.0 mg/kg/injection, schedule: Q01DX009 (ip), vehicle: saline
[2] = dose: 100.0 mg/kg/injection, schedule: Q04DX003 (ip), vehicle: saline with Tween-80
[3] = dose: 100.0 mg/kg/injection, schedule: Q04DX003 (ip), vehicle: Klucel (hydroxypropylcellulose) (HPC)
[4] = dose: 200.0 mg/kg/injection, schedule: Q04DX003 (ip), vehicle: Klucel (hydroxypropylcellulose) (HPC)
[5] = dose: 400.0 mg/kg/injection, schedule: Q04DX003 (ip), vehicle: Klucel (hydroxypropylcellulose) (HPC)
[6] = dose: 50.0 mg/kg/injection, schedule: Q04DX003 (ip), vehicle: water
[7] = dose: 100.0 mg/kg/injection, schedule: Q04DX003 (ip), vehicle: water
[8] = dose: 50.0 mg/kg/injection, schedule: Q01DX009 (ip), vehicle: water
[9] = dose: 25.0 mg/kg/injection, schedule: Q01DX009 (ip), vehicle: Klucel (hydroxypropylcellulose) (HPC)
[10] = dose: 50.0 mg/kg/injection, schedule: Q01DX009 (ip), vehicle: Klucel (hydroxypropylcellulose) (HPC)

## CCCCCCOP(=O)(N1CC1)N1CC1
[1]
  T/C: 123 % of control
dose: 50.0 mg/kg/injection, schedule: Q01DX009 (ip), vehicle: saline
  T/C: 90 % of control
[2]
  T/C: 113 % of control

## O=C(O)c1ccccc1N=Cc1ccccc1O
dose: 176.0 mg/kg/injection, schedule: Q04DX003 (ip), vehicle: saline with Tween-80
  T/C: 109 % of control
dose: 264.0 mg/kg/injection, schedule: Q04DX003 (ip), vehicle: saline with Tween-80
  T/C: 109 % of control
dose: 400.0 mg/kg/injection, schedule: Q04DX003 (ip), vehicle: saline with Tween-80
  T/C: 109 % of control

## CCCCCCCCCCCCOc1ccccc1C=O
dose: 50.0 mg/kg/injection, schedule: Q04DX003 (ip), vehicle: Klucel (hydroxypropylcellulose) (HPC)
  T/C: 104 % of control
[3]
  T/C: 100 % of control
dose: 100.0 mg/kg/injection, schedule: Q04DX003 (ip), vehicle: saline sonified
  T/C: 118 % of control
[4]
  T/C: 118 % of control
dose: 200.0 mg/kg/injection, schedule: Q04DX003 (ip), vehicle: saline sonified
  T/C: 122 % of control
[5]
  T/C: 109 % of control

## CCN(CC)CCCC(C)NS(=O)(=O)c1cccc2c(N(C)C)cccc12 (stereo unspecified)
dose: 6.25 mg/kg/injection, schedule: Q04DX003 (ip), vehicle: water
  T/C: 97 % of control
dose: 12.5 mg/kg/injection, schedule: Q04DX003 (ip), vehicle: water
  T/C: 108 % of control
dose: 25.0 mg/kg/injection, schedule: Q04DX003 (ip), vehicle: water
  T/C: 118 % of control
[6]
  T/C: 118 % of control
[7]
  T/C: 115 % of control

## C=C(C)C12OC3(c4ccccc4)OC1C1C4OC4(CO)C(O)C4(O)C(=O)C(C)=CC4C1(O3)C(C)C2OC(=O)/C=C/C=C/C=C/CCC (stereo unspecified)
dose: 6.3 micrograms/kg/injection, schedule: Q## X009 (ip), vehicle: saline with Tween-80
  T/C: 109 % of control
dose: 12.5 micrograms/kg/injection, schedule: Q## X009 (ip), vehicle: saline with Tween-80
  T/C: 106 % of control
dose: 25.0 micrograms/kg/injection, schedule: Q## X009 (ip), vehicle: saline with Tween-80
  T/C: 109 % of control
dose: 50.0 micrograms/kg/injection, schedule: Q## X009 (ip), vehicle: saline with Tween-80
  T/C: 106 % of control
dose: 100.0 micrograms/kg/injection, schedule: Q## X009 (ip), vehicle: saline with Tween-80
  T/C: 168 % of control

## CC12CCC3C4CCC(=O)C(O)=C4CCC3C1CCC2OC(=O)CCC1CCCC1 (stereo unspecified)
dose: 100.0 mg/kg/injection, schedule: Q04DX003 (sc), vehicle: steriod suspending solution
  T/C: 86 % of control
dose: 400.0 mg/kg/injection, schedule: Q04DX003 (sc), vehicle: steriod suspending solution
  T/C: 95 % of control

## FC(F)(F)c1nc[nH]c1C(F)(F)F
dose: 3.12 mg/kg/injection, schedule: Q01DX009 (ip), vehicle: water
  T/C: 99 % of control
dose: 6.25 mg/kg/injection, schedule: Q01DX009 (ip), vehicle: water
  T/C: 90 % of control
dose: 12.5 mg/kg/injection, schedule: Q01DX009 (ip), vehicle: water
  T/C: 91 % of control
dose: 25.0 mg/kg/injection, schedule: Q01DX009 (ip), vehicle: water
  T/C: 99 % of control
[8]
  T/C: 89 % of control
[6]
  T/C: 98 % of control
[7]
  T/C: 104 % of control

## Cc1ccc(N2CC(=O)N3CCCC(c4ccccc4)N3C(=O)C2)cc1 (stereo unspecified)
dose: 50.0 mg/kg/injection, schedule: Q01DX005 (ip), vehicle: saline with Tween-80
  T/C: 97 % of control
dose: 100.0 mg/kg/injection, schedule: Q01DX005 (ip), vehicle: saline with Tween-80
  T/C: 94 % of control
dose: 200.0 mg/kg/injection, schedule: Q01DX005 (ip), vehicle: saline with Tween-80
  T/C: 94 % of control

## CC1CN1P(=O)(N1CCCC1)N1CC1C (stereo unspecified)
dose: 12.5 mg/kg/injection, schedule: Q04DX003 (ip), vehicle: saline
  T/C: 102 % of control
[1]
  T/C: 156 % of control
dose: 25.0 mg/kg/injection, schedule: Q04DX003 (ip), vehicle: saline
  T/C: 105 % of control
dose: 32.0 mg/kg/injection, schedule: Q01DX009 (ip), vehicle: saline
  T/C: 155 % of control
dose: 37.5 mg/kg/injection, schedule: Q01DX009 (ip), vehicle: saline
  T/C: 173 % of control
dose: 50.0 mg/kg/injection, schedule: Q04DX003 (ip), vehicle: saline
  T/C: 169 % of control
dose: 64.0 mg/kg/injection, schedule: Q01DX009 (ip), vehicle: saline
  T/C: 87 % of control
dose: 100.0 mg/kg/injection, schedule: Q04DX003 (ip), vehicle: saline
  T/C: 179 % of control

## ClCC#Cc1ccccc1
dose: 12.5 mg/kg/injection, schedule: Q01DX009 (ip), vehicle: Klucel (hydroxypropylcellulose) (HPC)
  T/C: 109 % of control
[9]
  T/C: 86 % of control
[10]
  T/C: 100 % of control

## CC(C)OC(CCCl)c1ccccc1 (stereo unspecified)
dose: 75.0 mg/kg/injection, schedule: Q01DX009 (ip), vehicle: Klucel (hydroxypropylcellulose) (HPC)
  T/C: 95 % of control
[3]
  T/C: 100 % of control
dose: 150.0 mg/kg/injection, schedule: Q01DX009 (ip), vehicle: Klucel (hydroxypropylcellulose) (HPC)
  T/C: 109 % of control
[4]
  T/C: 96 % of control
dose: 300.0 mg/kg/injection, schedule: Q01DX009 (ip), vehicle: Klucel (hydroxypropylcellulose) (HPC)
  T/C: 109 % of control
[5]
  T/C: 100 % of control

## CCC(C)SC1=NC=NC2=NC=NC21 (stereo unspecified)
dose: 50.0 mg/kg/injection, schedule: Q01DX009 (ip), vehicle: saline with Tween-80
  T/C: 100 % of control
dose: 100.0 mg/kg/injection, schedule: Q01DX009 (ip), vehicle: saline with Tween-80
  T/C: 96 % of control
[2]
  T/C: 91 % of control
dose: 200.0 mg/kg/injection, schedule: Q04DX003 (ip), vehicle: saline with Tween-80
  T/C: 100 % of control

## CCC(=O)c1cc(O)ccc1O
dose: 50.0 mg/kg/injection, schedule: Q01DX009 (ip), vehicle: other
  T/C: 106 % of control
dose: 100.0 mg/kg/injection, schedule: Q01DX009 (ip), vehicle: other
  T/C: 97 % of control

## C=C1C(=O)OC2/C=C(/C)C(OC(C)=O)CC(O)/C(C)=C\C(OC(=O)/C(C)=C\C)C12 (stereo unspecified)
dose: 2.5 mg/kg/injection, schedule: Q01DX009 (ip), vehicle: saline + alcohol
  T/C: 100 % of control
dose: 5.0 mg/kg/injection, schedule: Q01DX009 (ip), vehicle: saline + alcohol
  T/C: 118 % of control
dose: 10.0 mg/kg/injection, schedule: Q01DX009 (ip), vehicle: saline + alcohol
  T/C: 109 % of control
dose: 20.0 mg/kg/injection, schedule: Q01DX009 (ip), vehicle: saline + alcohol
  T/C: 109 % of control
dose: 27.0 mg/kg/injection, schedule: Q01DX010 (ip), vehicle: saline
  T/C: 115 % of control
dose: 40.0 mg/kg/injection, schedule: Q01DX009 (ip), vehicle: saline + alcohol
  T/C: 122 % of control
dose: 40.0 mg/kg/injection, schedule: Q01DX010 (ip), vehicle: saline
  T/C: 110 % of control
dose: 80.0 mg/kg/injection, schedule: Q01DX009 (ip), vehicle: saline + alcohol
  T/C: 86 % of control

## CC(C)(C)OC(=O)C(C=O)N1C(=O)c2ccccc2C1=O (stereo unspecified)
dose: 100.0 mg/kg/injection, schedule: Q01DX001 (ip), vehicle: saline with Tween-80
  T/C: 95 % of control
dose: 200.0 mg/kg/injection, schedule: Q01DX001 (ip), vehicle: saline with Tween-80
  T/C: 95 % of control
dose: 400.0 mg/kg/injection, schedule: Q01DX001 (ip), vehicle: saline with Tween-80
  T/C: 100 % of control

## O=C1NC(c2ccccc2)C(=O)N1CCN(CCCl)CCCl (stereo unspecified)
dose: 1.56 mg/kg/injection, schedule: Q01DX009 (ip), vehicle: saline
  T/C: 114 % of control
dose: 3.12 mg/kg/injection, schedule: Q01DX009 (ip), vehicle: saline
  T/C: 105 % of control
[1]
  T/C: 201 % of control

## CC(C)CC(CC(C)C)NCC(C)OC(=O)c1ccc([N+](=O)[O-])cc1 (stereo unspecified)
[8]
  T/C: 106 % of control
[6]
  T/C: 100 % of control
dose: 100.0 mg/kg/injection, schedule: Q01DX009 (ip), vehicle: water
  T/C: 92 % of control
[7]
  T/C: 103 % of control
dose: 200.0 mg/kg/injection, schedule: Q01DX009 (ip), vehicle: water
  T/C: 103 % of control
dose: 200.0 mg/kg/injection, schedule: Q04DX003 (ip), vehicle: water
  T/C: 94 % of control
dose: 400.0 mg/kg/injection, schedule: Q04DX003 (ip), vehicle: water
  T/C: 88 % of control

## CN(C)c1ccc(/C=C/c2nc3ccccc3s2)cc1
dose: 100.0 mg/kg/injection, schedule: Q01DX009 (ip), vehicle: Klucel (hydroxypropylcellulose) (HPC)
  T/C: 100 % of control
[3]
  T/C: 112 % of control
dose: 200.0 mg/kg/injection, schedule: Q01DX009 (ip), vehicle: Klucel (hydroxypropylcellulose) (HPC)
  T/C: 109 % of control
[4]
  T/C: 108 % of control
dose: 400.0 mg/kg/injection, schedule: Q01DX009 (ip), vehicle: Klucel (hydroxypropylcellulose) (HPC)
  T/C: 109 % of control
[5]
  T/C: 100 % of control

## C=C1C(=O)OC2CC(C)C3CC(=O)C(C)=C3C(O)C12 (stereo unspecified)
[9]
  T/C: 120 % of control
[10]
  T/C: 112 % of control
